PMC5656836, “Distinct activation mechanisms trigger the trypanocidal activity of DNA damaging prodrugs” (Molecular Microbiology, 2017)
“Also recorded” adds a separate entry of the source. Read-outs that look alike come from different tables or passages of the source.

What was measured:
[1] = test system: differentiated THP‐1 cells; assay: Mammalian inhibition assay, differentiated THP-1 cells; type: cell-based; details: Homo sapiens, 72 h; differentiated THP‐1 cells, 3 days; read-out: THP‐1 EC50
[2] = test system: mouse peritoneal macrophages; assay: Toxicity to mouse peritoneal macrophages (cell counts, Giemsa); type: cell-based, BALB/c mice; details: Peritoneal macrophage, 120 h, non‐cancerous primary cells, up to 5 days, read-out: EC50 towards mouse peritoneal macrophages
[3] = test system: bloodstream form T. brucei; assay: Growth inhibition of wild type / control bloodstream form T. brucei (resazurin); type: cell-based; details: for EC50: Trypanosoma brucei
[4] = test system: T. brucei over expressing TbCPR2 (Tbcpr2++); assay: microbe, parasite or virus in culture; type: cell-based
[5] = test system: ΔTbsnm1 Tbcpr2++ T. brucei; type: cell-based
[6] = test system: T. brucei Tbsnm1 null mutants (ΔTbsnm1); assay: microbe, parasite or virus in culture; type: cell-based; details: for EC50: Trypanosoma brucei, read-out: EC50 ΔTbsnm1
[7] = test system: T. brucei over expressing TbNTR (Tbntr++); assay: microbe, parasite or virus in culture; type: cell-based; details: for EC50: Trypanosoma brucei, read-out: EC50 Tbntr++
T. cruzi epimastigotes = assay: Growth inhibition of T. cruzi epimastigotes (resazurin); type: cell-based; details: for EC50: Trypanosoma cruzi, 336 h, epimastigotes, 14 days, read-out: T. cruzi EC50
L. major promastigotes = assay: Growth inhibition of L. major promastigotes (resazurin); type: cell-based; details: for EC50: Leishmania major, 144 h, promastigotes, 6 days, read-out: L. major EC50
RH1^RC1 T. brucei = assay: microbe, parasite or virus in culture; type: cell-based;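 as to ratio (fold difference in EC50 between RH1^RC1 and wild type): resistant clone selected by stepwise exposure to the aziridinyl benzoquinone prodrug in culture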
[8] = test system: differentiated THP‐1 cells; details: read-out: THP‐1 EC50, ref Voak et al., 2013; cited from earlier work
[9] = Table 3, BSF T. brucei wild type, read-out: EC50 Wild type
[10] = Table 4, wild type T. brucei, read-out: EC50 Control

O=C1C(N2CC2)=C(N2CC2)C(=O)C(N2CC2)=C1N1CC1 [ABQ22]
EC50 [1]: 138 ± 25 nM
EC50 [2]: 120 nM
T. brucei SI ([3]; Selectivity Index: fold difference in EC50 of THP‐1 line relative to parasite): 1
EC50 ([3]; 72 h, bloodstream form, 3 days, Table 1, activity of some compounds previously reported (Hall et al., 2012), read-out: T. brucei EC50): 148 ± 1 nM
EC50 ([3]; Table 2, parasites expressing wild type levels, read-out: EC50 Control): 138 ± 25 nM
EC50 [3, 9]: 197 ± 31 nM
EC50 [3, 10]: 138 ± 25 nM
Fold difference in EC50 Tbcpr2++ relative to control [4]: 20 ± 3 (0.14 )
Susceptibility of TbCPR2 or 3 over expressing lines relative to control cells [4]: hypersensitive; also recorded: sevenfold
EC50 ([4]; Trypanosoma brucei, read-out: EC50 Tbcpr2++): 20 nM
Fold more sensitive, ΔTbsnm1 Tbcpr2++ versus wild type [5]: 12.5 fold
Ratio of EC50 values ΔTbsnm1 / control [6]: 0.15
Susceptibility of Tbsnm1 null mutants relative to wild type / control (fold more susceptible) [6]: sevenfold
EC50 [6]: 21 ± 5 nM
Fold difference in EC50 Tbntr++ relative to control [7]: 148 ± 9 (1.07)
EC50 [7]: 148 nM
T. cruzi SI (T. cruzi epimastigotes): 3
EC50 (T. cruzi epimastigotes): 55 ± 2 nM
L. major SI (L. major promastigotes): 1
EC50 (L. major promastigotes): 0.218 ± 0.02 µM
Susceptibility of RH1 selected (RH1^RC) lines relative to wild type (RH1^RC1 T. brucei): equally sensite
ratio (fold difference in EC50 between RH1^RC1 and wild type) (RH1^RC1 T. brucei): 1.2
EC50 (RH1^RC1 T. brucei; Trypanosoma brucei, read-out: EC50 RH1^RC1): 232 ± 27 nM

CC1CS(=O)(=O)CCN1/N=C/c1ccc([N+](=O)[O-])o1 (stereo not shown) [Nifurtimox, reference compound]
EC50 [3, 9]: 2700 ± 100 nM
EC50 [3, 10]: 2850 ± 20 nM
EC50 ([3]; read-out: EC50 Control): 2980 ± 30 nM
EC50 [8]: > 100 µM
EC50 [6]: 2250 ± 90 nM
EC50 [7]: 315 nM
EC50 (T. cruzi epimastigotes): 2600 ± 400 nM
EC50 (L. major promastigotes): 6.28 ± 0.04 µM
